Assay results reported in patent US4774184A, “Culture and process for producing antibiotic LL-D42067alpha” (American Cyanamid Company, priority 1985, dated 1988).
≈ marks a conversion by molar mass, not a printed value. Where two headings read alike, the source gives them in different places.

Key:
Assay type in all cases: cell-based
gram-positive bacteria = assay: in vitro antimicrobial spectrum, summary in words; conditions: summary of Table VI
Procedure: (§1) The in vitro antimicrobial spectrum of LL-D42067α was determined by the agar plate dilution method with Mueller-Hinton agar and an inoculum of each test organism of approximately 10^4 colony forming units delivered by the Steers replicating device. The minimal inhibitory concentration (MIC) in mcg/ml was defined as the lowest concentration of LL-D42067α that inhibited visible growth after 18 hours incubation at 35° C.

yeasts = assay: in vitro antimicrobial spectrum, summary in words; conditions: summary of Table VI
Procedure: as §1

Saccharomyces cerevisiae = assay: in vitro antimicrobial spectrum, agar plate dilution MIC; conditions: strain Y 15, Mueller-Hinton agar, 18 hours, 35° C., read-out: minimal inhibitory concentration (MIC)
Procedure: as §1

[1] = system: Staphylococcus epidermidis; assay: as above; conditions: 18 hours, 35° C., read-out: minimal inhibitory concentration (MIC)
Procedure: as §1

Candida albicans = assay: as above; conditions: strain CA 300, Mueller-Hinton agar, 18 hours, 35° C., read-out: minimal inhibitory concentration (MIC)
Procedure: as §1

Staphylococcus aureus = assay: as above; conditions: Mueller-Hinton agar, 18 hours, 35° C.; for MIC: Staphylococcus aureus, read-out: minimal inhibitory concentration (MIC)
Procedure: as §1

Bacillus subtilis = assay: as above; conditions: ATCC6633, strain ATCC 6633, Mueller-Hinton agar, 18 hours, 35° C., read-out: minimal inhibitory concentration (MIC)
Procedure: as §1

Streptococcus faecalis = assay: as above; conditions: Enterococcus faecalis, ATCC29212; strain ATCC 29212; Mueller-Hinton agar, 18 hours, 35° C.; read-out: minimal inhibitory concentration (MIC)
Procedure: as §1

Streptococcus mutans = assay: as above; conditions: 18 hours, 35° C., read-out: minimal inhibitory concentration (MIC)
Procedure: as §1

Proteus morganii = assay: as above; conditions: Morganella morganii; strain K-79-25; Mueller-Hinton agar, 18 hours, 35° C.; read-out: minimal inhibitory concentration (MIC)
Procedure: as §1

Escherichia coli = assay: as above; conditions: 18 hours, 35° C., read-out: minimal inhibitory concentration (MIC)
Procedure: as §1

Klebsiella pneumoniae = assay: as above; conditions: strain AD, Mueller-Hinton agar, 18 hours, 35° C., read-out: minimal inhibitory concentration (MIC)
Procedure: as §1

Streptococcus sanguis = assay: as above; conditions: strain G9B (a), Mueller-Hinton agar, 18 hours, 35° C., read-out: minimal inhibitory concentration (MIC)
Procedure: as §1

Micrococcus luteus = assay: as above; conditions: strain PC 1001, Mueller-Hinton agar, 18 hours, 35° C., read-out: minimal inhibitory concentration (MIC)
Procedure: as §1

[2] = system: Acinetobacter calcoaceticus; assay: as above; conditions: strain Stfd-79-17, Mueller-Hinton agar, 18 hours, 35° C., read-out: minimal inhibitory concentration (MIC)
Procedure: as §1

[3] = system: Streptococcus (enterococcus sp); assay: as above; conditions: Mueller-Hinton agar, 18 hours, 35° C.
Procedure: as §1

Bacillus cereus = assay: as above; conditions: strain LL #4, Mueller-Hinton agar, 18 hours, 35° C., read-out: minimal inhibitory concentration (MIC)
Procedure: as §1

COc1c2c(c(O)c3c(=O)c4c(oc13)C(O)CCC4O)-c1c3c(c4cc(C)n(C)c(=O)c4c1O)OCOC3C2 (stereo not drawn) [LL-D42067α]
antimicrobial activity versus gram-positive bacteria (gram-positive bacteria): active
antimicrobial activity against yeasts (yeasts): moderately active
MIC (Saccharomyces cerevisiae): 32 µg/mL (≈ 59.8 µM)
MIC ([1]; ATCC12228, strain ATCC 12228, Mueller-Hinton agar): ≤ 0.06 µg/mL
MIC ([1]; strain CMC-83-56, Mueller-Hinton agar): ≤ 0.06 µg/mL
MIC (Candida albicans): 256 µg/mL (≈ 478 µM)
MIC (Staphylococcus aureus; ATCC25923, strain ATCC 25923): ≤ 0.06 µg/mL
MIC (Staphylococcus aureus; strain Smith): ≤ 0.06 µg/mL
minimal inhibitory concentration (MIC) (Staphylococcus aureus; strain LL #14): ≤ 0.06 µg/mL
minimal inhibitory concentration (MIC) (Staphylococcus aureus; strain LL #27): ≤ 0.06 µg/mL
minimal inhibitory concentration (MIC) (Staphylococcus aureus; strain LL #45): ≤ 0.06 µg/mL
MIC (Bacillus subtilis): ≤ 0.06 µg/mL
MIC (Streptococcus faecalis): ≤ 0.06 µg/mL
MIC (Streptococcus mutans; ATCC27352, strain ATCC 27352, Mueller-Hinton agar): ≤ 0.06 µg/mL
MIC (Streptococcus mutans; strain BHI (b), Mueller-Hinton agar): ≤ 0.06 µg/mL
MIC (Proteus morganii): 512 µg/mL (≈ 956 µM)
MIC (Escherichia coli; ATCC25922, strain ATCC 25922, Mueller-Hinton agar): 512 µg/mL (≈ 956 µM)
MIC (Escherichia coli; strain #311, Mueller-Hinton agar): 512 µg/mL (≈ 956 µM)
MIC (Klebsiella pneumoniae): 512 µg/mL (≈ 956 µM)
MIC (Streptococcus sanguis): ≤ 0.06 µg/mL
MIC (Micrococcus luteus): ≤ 0.06 µg/mL
MIC [2]: 512 µg/mL (≈ 956 µM)
MIC ([3]; Streptococcus, strain OSU-75-1, read-out: minimal inhibitory concentration (MIC)): ≤ 0.06 µg/mL
minimal inhibitory concentration (MIC) ([3]; strain SM-77-15): ≤ 0.06 µg/mL
MIC (Bacillus cereus): ≤ 0.06 µg/mL
